Assay results from US20240058350A1, “Methods of Treatment” (Arena Pharmaceuticals, Inc., priority 2020, published 2024).

Key:
[1] = Clinical Trial 1: phase 1 single oral dose escalation, PK; format: in vivo, human; conditions: healthy subjects; for half-life compared with the parent compound: single oral dose of Compound 1 HCl
Experimental: (§1) A phase 1, randomized, double-blind, placebo-controlled, single-dose escalation study was conducted to assess the tolerability, PK, and PD of the HCl salt of Compound 1 at doses of 1 to 320 mg (adjusted free-base concentration) administered orally as a single dose to a total of 91 healthy subjects.

5-HT2C receptors = biological target: T1, 5-HT2C receptors (Homo sapiens, UniProt P28335); assay: affinity for 5-HT2C receptors; format: binding
T1 sequence (P28335 33-458): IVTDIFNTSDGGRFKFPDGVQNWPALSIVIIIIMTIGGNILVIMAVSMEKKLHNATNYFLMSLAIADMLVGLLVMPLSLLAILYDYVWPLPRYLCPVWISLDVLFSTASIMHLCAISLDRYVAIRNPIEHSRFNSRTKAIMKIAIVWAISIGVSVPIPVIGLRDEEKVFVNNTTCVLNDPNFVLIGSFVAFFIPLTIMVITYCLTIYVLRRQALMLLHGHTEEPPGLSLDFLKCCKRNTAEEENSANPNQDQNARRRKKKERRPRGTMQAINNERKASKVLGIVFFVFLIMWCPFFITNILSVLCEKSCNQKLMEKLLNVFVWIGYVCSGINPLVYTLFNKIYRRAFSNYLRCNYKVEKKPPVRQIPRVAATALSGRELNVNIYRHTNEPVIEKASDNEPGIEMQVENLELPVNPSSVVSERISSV
Excerpt: (§2) M1 refers to N-(4-(2-(2-hydroxyethylamino)ethoxy)-3-(1-methyl-1H-pyrazol-5-yl)phenyl)-3-methoxybenzamide. M2 refers to N-(4-(2-aminoethoxy)-3-(1-methyl-1H-pyrazol-5-yl)phenyl)-3-methoxybenzamide. Compound 1, or a pharmaceutically acceptable salt, hydrate, or solvate thereof, inhibits serotonin-mediated vasoconstriction and inhibits serotonin-mediated amplification of platelet aggregation.

human 5-HT2A = human 5-HT2A (Homo sapiens, UniProt P28223); assay: affinity for human 5-HT2A; format: binding
Excerpt: as §2

5-HT2B receptors = 5-HT2B receptors (Homo sapiens, UniProt P41595); assay: affinity for 5-HT2B receptors; format: binding
Excerpt: as §2

[2] = Clinical Trial 2: phase 1 multiple ascending oral dose TID for 7 days, PK; format: in vivo, human; conditions: for accumulation ratio as measured by AUCtau: 60 and 80 mg Compound 1 oral TID, after 7 days; for metabolite exposures with increasing Compound 1 doses / metabolite to parent ratios with increasing Compound 1 doses: oral TID for 7 days
Experimental: A phase 1, randomized, double-blind, placebo-controlled, multiple-ascending dose-escalation study was conducted to assess the safety, tolerability, PD, and steady state PK of the HCl salt of Compound 1 from 5 to 80 mg (adjusted free-base concentration) administered orally TID for 7 days in a total of 50 healthy subjects.

[3] = system: 5-HT-mediated amplification of platelet aggregation; assay: Clinical Trial 1: PD, platelet aggregation with ADP with and without 5-HT; format: in vivo, human; conditions: single oral doses above 1 mg, healthy subjects
Experimental: as §1
(§3) PD assessment consisted of measuring pre- and post-dose platelet aggregation using an in vitro assay with ADP with and without 5-HT. The degree of thrombin receptor activating peptide (TRAP)-induced platelet aggregation inhibition between groups was similar. However, Compound 1 inhibited 5-HT-mediated amplification of platelet aggregation at doses above 1 mg.

[4] = Clinical Trial 3: safety and tolerability of single IV doses; format: in vivo, human
Experimental: (§4) A phase 1, randomized, blinded, sponsor-open, placebo-controlled, single ascending dose (SAD) study was conducted to assess the safety, tolerability, PK, and PD of single IV doses of Compound 1 and two active metabolites (M1 and M2) in healthy adult subjects. Five dose cohorts (each cohort composed of six Compound 1 subjects and two placebo subjects) were evaluated.
(§5) Subjects received a single dose of Compound 1 or placebo. Each cohort included a sentinel group of two subjects (one active and one placebo) dosed at least 24 hours before the remaining six subjects (five active and one placebo). The remaining subjects were dosed following review of all available safety and tolerability data from the sentinel subjects. Safety, tolerability, and PK data were reviewed after the completion of each dose cohort and prior to escalation to the next dose cohort. PD data were reviewed prior to dosing subsequent cohorts. Selection of dose for subsequent cohorts was based on the data from previous cohort(s). Following administration of Compound 1 or placebo, subjects were confined for 72 hours to monitor safety and to collect PK/PD samples. Cardiodynamic electrocardiogram (ECG) sampling were collected pre-dose and through 24 hours post-dose in each cohort. The clinic contacted subjects on Day 11 (1 day) to determine if any adverse event (AE) occurred since discharge.
(§6) IV doses of placebo […], 1 mg Compound 1 (n=6), 5 mg Compound 1 (n=6), 10 mg Compound 1 (n=5), 20 mg Compound 1 (n=6), 30 mg Compound 1 (n=6), or 40 mg Compound 1 (n=6) were administered. The doses of 1 mg, 5 mg, 10 mg, and 20 mg of Compound 1 were administered by slow bolus infusion over a period of two minutes, while the doses of 30 mg and 40 mg of Compound 1 were administered over a period of five minutes. The PD effects of the single doses were examined immediately after dosing and 4 hours after dosing.

[5] = system: 5-HT-mediated amplification of platelet aggregation; assay: Clinical Trial 3: PD, 5-HT-mediated amplification of platelet aggregation; format: in vivo, human; conditions: single IV doses of 20 mg and greater
Experimental: as §4
as §5, with “discharge. […]” for “discharge.”

[6] = system: thrombin receptor activating peptide (TRAP)-induced platelet aggregation; assay: Clinical Trial 1: PD, TRAP-induced platelet aggregation; format: in vivo, human; conditions: single oral dose versus placebo, healthy subjects
Experimental: as §1, §3

[7] = system: serotonin-mediated amplification of platelet aggregation; assay: serotonin-mediated amplification of platelet aggregation; format: cell-based
Excerpt: as §2

[8] = Clinical Trial 3: phase 1 single ascending IV dose, PK; format: in vivo, human
Experimental: as §4, §5, §6

[9] = system: serotonin-mediated vasoconstriction; assay: serotonin-mediated vasoconstriction
Excerpt: as §2

[10] = all doses, Day 1 versus Day 7, oral TID for 7 days

5-HT2B receptors, sequence (P41595 whole entry): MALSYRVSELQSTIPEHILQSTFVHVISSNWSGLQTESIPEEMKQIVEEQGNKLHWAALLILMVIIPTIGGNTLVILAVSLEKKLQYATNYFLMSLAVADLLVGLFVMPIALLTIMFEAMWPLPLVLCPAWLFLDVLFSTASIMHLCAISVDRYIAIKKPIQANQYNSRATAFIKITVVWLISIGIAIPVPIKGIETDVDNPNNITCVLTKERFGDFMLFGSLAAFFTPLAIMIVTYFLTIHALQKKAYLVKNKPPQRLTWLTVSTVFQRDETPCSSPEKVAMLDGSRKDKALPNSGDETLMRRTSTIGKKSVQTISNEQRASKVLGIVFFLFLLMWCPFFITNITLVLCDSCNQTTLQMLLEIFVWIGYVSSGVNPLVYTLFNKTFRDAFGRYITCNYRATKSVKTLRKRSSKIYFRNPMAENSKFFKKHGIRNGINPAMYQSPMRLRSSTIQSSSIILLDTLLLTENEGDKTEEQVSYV
human 5-HT2A, sequence (P28223 whole entry): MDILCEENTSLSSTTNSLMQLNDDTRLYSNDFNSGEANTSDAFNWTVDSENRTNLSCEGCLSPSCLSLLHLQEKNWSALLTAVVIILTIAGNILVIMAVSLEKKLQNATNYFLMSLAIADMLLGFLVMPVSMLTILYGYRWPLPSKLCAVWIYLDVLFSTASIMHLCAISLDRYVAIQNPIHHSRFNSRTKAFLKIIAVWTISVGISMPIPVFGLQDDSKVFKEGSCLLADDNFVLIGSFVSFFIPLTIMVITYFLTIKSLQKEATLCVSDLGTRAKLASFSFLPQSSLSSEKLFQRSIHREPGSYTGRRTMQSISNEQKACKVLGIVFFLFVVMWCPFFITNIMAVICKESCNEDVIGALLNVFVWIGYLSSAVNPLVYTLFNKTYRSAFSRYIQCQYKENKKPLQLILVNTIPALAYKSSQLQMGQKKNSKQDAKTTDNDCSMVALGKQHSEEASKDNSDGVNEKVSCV

metabolite-to-parent ratios as the dose was escalated ([1]; single oral dose 1 to 320 mg)	affinity for 5-HT2C receptors (5-HT2C receptors)	affinity for human 5-HT2A (human 5-HT2A)	affinity for 5-HT2B receptors (5-HT2B receptors)	accumulation ratio as measured by AUCtau [2]	metabolite exposures with increasing Compound 1 doses [2]	metabolite to parent ratios with increasing Compound 1 doses [2]	Structure (SMILES)	half-life compared with the parent compound [1]	also measured
decreased	no appreciable affinity	high affinity	no appreciable affinity	approximately 2	increased	decreased	COc1cccc(C(=O)Nc2ccc(OCCN)c(-c3ccnn3C)c2)c1 [Compound M2, N-(4-(2-aminoethoxy)-3-(1-methyl-1H-pyrazol-5-yl)phenyl)-3-methoxybenzamide]	longer half-lives than the parent compound	
decreased	no appreciable affinity	high affinity	no appreciable affinity	approximately 2	increased	decreased	COc1cccc(C(=O)Nc2ccc(OCCNCCO)c(-c3ccnn3C)c2)c1 [Compound M1, N-(4-(2-(2-hydroxyethylamino)ethoxy)-3-(1-methyl-1H-pyrazol-5-yl)phenyl)-3-methoxybenzamide]	longer half-lives than the parent compound	
	no appreciable affinity	high affinity	no appreciable affinity				COc1cccc(C(=O)Nc2ccc(OCCN3CCOCC3)c(-c3ccnn3C)c2)c1 [Compound 1, 3-methoxy-N-[3-(2-methylpyrazol-3-yl)-4-(2-morpholin-4-ylethoxy)phenyl]benzamide]		5-HT-mediated amplification of platelet aggregation [3]: inhibited; epistaxis, subjects affected ([4]; Compound 1 group, single IV dose): one subject; bleeding-related TEAEs, Bleeding Academic Research Consortium (BARC) Type ([4]; single IV doses): ≤ 1; discontinuation of treatment ([4]; single IV doses 1 to 40 mg): No subjects discontinued treatment; inhibition of 5-HT-mediated amplification of platelet aggregation [5]: Near-maximal inhibition; absorption ([1]; single oral dose 1 to 320 mg): rapidly absorbed at all doses; half-life as the dose was escalated ([1]; single oral dose 1 to 320 mg): half-life increased; plasma exposure measures versus dose ([1]; single oral dose 1 to 320 mg): increased in a greater than dose proportional manner; degree of TRAP-induced platelet aggregation inhibition between groups [6]: similar; AUC accumulation ratio [2, 10]: less than 2; Cmax accumulation ratio [2, 10]: less than 2; absorption ([2]; oral 5 to 80 mg TID for 7 days, healthy subjects): rapidly absorbed at all doses; exposure as measured by AUC versus dose ([2]; oral TID, 5 and 10 mg): dose proportional; exposure as measured by AUC versus dose ([2]; oral TID, 40, 60, and 80 mg, Day 1 and Day 7): greater than dose proportional; serotonin-mediated amplification of platelet aggregation [7]: inhibits; Cmax ([8]; human, plasma, 40 mg single IV dose, healthy adult subjects, read-out: mean observed Cmax): 1840 ng/mL; half-life ([8]; human, plasma, single IV doses 1 to 40 mg, healthy adult subjects, read-out: mean terminal elimination half-life): 1 to 2 h; dose dependence of mean terminal elimination half-life ([8]; single IV doses 1 to 40 mg): dose-dependent; serotonin-mediated vasoconstriction [9]: inhibits
